From patent USRE50528E1, “Compounds and compositions for modulating EGFR mutant kinase activities” (Yuhan Corporation, priority 2014, dated 2025)

Key:
EGFR mutant L858R/T790M = molecular target: T1, EGFR mutant L858R/T790M (Homo sapiens, UniProt P00533, L858R/T790M); assay: Kinase inhibition assay, EGFR L858R/T790M; assay type: biochemical; details: read-out: EGFR mutants L858R/T790M;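 further: truncated human enzyme preincubated two hours with compound, then one hour with one millimolar ATP and ULight-PolyGT peptide, Europium-labeled antibody detection, IC50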
T1 construct: truncated human JAK3, EGFR mutants such as del E746-A750; purchased Carna Biosciences
T1 sequence (P00533 669-1210 T790M/L858R limits assumed): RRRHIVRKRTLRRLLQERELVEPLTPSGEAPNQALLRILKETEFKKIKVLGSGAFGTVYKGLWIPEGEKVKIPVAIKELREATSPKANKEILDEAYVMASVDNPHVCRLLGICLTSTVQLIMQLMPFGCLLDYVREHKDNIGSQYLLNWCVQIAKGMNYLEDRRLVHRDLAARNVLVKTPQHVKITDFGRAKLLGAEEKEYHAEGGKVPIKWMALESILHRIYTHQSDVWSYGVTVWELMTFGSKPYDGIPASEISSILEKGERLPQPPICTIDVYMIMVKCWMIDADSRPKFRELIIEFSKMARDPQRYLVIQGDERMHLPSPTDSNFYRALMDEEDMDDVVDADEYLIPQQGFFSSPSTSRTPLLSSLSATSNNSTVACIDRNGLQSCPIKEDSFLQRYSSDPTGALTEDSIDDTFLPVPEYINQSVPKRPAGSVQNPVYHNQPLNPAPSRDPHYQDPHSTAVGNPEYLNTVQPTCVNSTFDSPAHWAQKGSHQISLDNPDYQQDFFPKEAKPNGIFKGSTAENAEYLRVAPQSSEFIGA

EGFR mutant T790M = molecular target: T2, EGFR mutant T790M (Homo sapiens, UniProt P00533, T790M); assay: Kinase inhibition assay, EGFR mutant T790M; details: biochemical potency;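 further: truncated human EGFR mutant enzyme preincubated two hours with compound, then ATP plus ULight-PolyGT peptide for one hour, Europium-labeled antibody LANCE detection, IC50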
T2 construct: truncated human JAK3, EGFR mutants such as del E746-A750; purchased Carna Biosciences
T2 sequence (P00533 669-1210 T790M limits assumed): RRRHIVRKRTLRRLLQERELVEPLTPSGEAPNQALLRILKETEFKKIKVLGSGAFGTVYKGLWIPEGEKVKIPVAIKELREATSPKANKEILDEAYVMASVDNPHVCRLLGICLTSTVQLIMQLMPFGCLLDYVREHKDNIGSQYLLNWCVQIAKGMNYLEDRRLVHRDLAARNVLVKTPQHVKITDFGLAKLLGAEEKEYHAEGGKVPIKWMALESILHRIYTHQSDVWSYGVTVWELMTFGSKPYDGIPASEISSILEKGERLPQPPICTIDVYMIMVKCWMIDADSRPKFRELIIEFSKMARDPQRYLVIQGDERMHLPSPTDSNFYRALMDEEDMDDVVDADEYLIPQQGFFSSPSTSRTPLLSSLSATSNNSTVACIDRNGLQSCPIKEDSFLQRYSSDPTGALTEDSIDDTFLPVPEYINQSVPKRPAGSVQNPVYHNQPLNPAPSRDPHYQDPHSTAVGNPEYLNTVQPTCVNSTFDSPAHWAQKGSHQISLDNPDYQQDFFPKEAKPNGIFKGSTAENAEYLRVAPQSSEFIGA

EGFR mutant L858R = molecular target: T3, EGFR mutant L858R (Homo sapiens, UniProt P00533, L858R); assay: Kinase inhibition assay, EGFR L858R; assay type: biochemical; details: read-out: EGFR mutants L858R;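 further: truncated human EGFR L858R kinase with compound preincubation, ULight-PolyGT peptide phosphorylation read by Europium-antibody Lance detection, IC50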
T3 construct: truncated human JAK3, EGFR mutants such as del E746-A750; purchased Carna Biosciences
T3 sequence (P00533 669-1210 L858R limits assumed): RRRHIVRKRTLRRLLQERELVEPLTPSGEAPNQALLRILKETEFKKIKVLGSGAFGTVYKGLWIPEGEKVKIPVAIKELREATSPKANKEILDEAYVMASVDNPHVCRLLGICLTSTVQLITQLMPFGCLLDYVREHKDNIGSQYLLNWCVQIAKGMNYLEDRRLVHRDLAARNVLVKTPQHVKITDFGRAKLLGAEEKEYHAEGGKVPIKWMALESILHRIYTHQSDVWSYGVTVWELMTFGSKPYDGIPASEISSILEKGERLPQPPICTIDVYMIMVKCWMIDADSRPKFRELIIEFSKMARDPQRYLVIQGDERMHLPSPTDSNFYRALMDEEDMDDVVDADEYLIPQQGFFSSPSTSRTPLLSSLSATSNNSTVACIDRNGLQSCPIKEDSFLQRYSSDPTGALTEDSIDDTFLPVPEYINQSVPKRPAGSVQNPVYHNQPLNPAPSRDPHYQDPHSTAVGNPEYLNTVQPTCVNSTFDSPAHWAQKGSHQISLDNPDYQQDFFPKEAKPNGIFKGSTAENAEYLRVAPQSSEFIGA

EGFR mutant Del19/T790M = molecular target: T4, EGFR mutant Del19/T790M (Homo sapiens, UniProt P00533, DEL746-750/T790M); assay: Kinase inhibition assay, EGFR del E746-A750/T790M; assay type: biochemical; details: read-out: EGFR mutants Del19/T790M
T4 construct: truncated human JAK3, EGFR mutants such as del E746-A750; purchased Carna Biosciences
T4 sequence (P00533 with tags, fused parts or gaps DEL746-750/T790M limits assumed): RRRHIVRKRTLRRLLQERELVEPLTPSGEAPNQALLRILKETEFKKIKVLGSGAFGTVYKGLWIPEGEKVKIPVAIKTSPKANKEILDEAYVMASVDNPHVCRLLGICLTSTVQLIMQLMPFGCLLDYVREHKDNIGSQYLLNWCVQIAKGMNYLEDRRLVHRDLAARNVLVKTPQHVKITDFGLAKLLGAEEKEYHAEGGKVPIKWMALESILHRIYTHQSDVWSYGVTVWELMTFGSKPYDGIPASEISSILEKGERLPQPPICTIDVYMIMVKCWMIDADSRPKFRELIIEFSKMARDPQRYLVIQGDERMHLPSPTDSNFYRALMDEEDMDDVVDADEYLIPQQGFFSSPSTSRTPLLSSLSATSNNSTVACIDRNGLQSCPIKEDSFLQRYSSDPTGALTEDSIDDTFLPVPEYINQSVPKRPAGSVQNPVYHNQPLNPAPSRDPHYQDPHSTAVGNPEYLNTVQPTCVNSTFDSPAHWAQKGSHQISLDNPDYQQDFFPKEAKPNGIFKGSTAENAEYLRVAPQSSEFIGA

SYK = molecular target: T5, SYK (Homo sapiens, UniProt P43405); assay: Kinase inhibition assay, SYK; assay type: biochemical; details: biochemical potency;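 further: purified full-length human SYK pre-incubated 30 min with compound, then ULight-TK peptide phosphorylation for 1 h, detected with Europium-labeled antibody in Lance buffer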
T5 construct: Purified human, full-length SYK, KDR; purchased Carna Biosciences

[1] = molecular target: T6, EGFR mutant Del19 (E746-A750) (Homo sapiens, UniProt P00533, DEL746-750); assay: Kinase inhibition assay, EGFR del E746-A750; assay type: biochemical; details: read-out: EGFR mutants Del19 (E746-A750);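 further: truncated human EGFR mutant kinase, two-hour preincubation with compound, then one-hour reaction with ATP and ULight-PolyGT peptide, LANCE Europium-antibody phosphorylation readout, IC50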
T6 construct: truncated human JAK3, EGFR mutants such as del E746-A750; purchased Carna Biosciences
T6 sequence (P00533 with tags, fused parts or gaps DEL746-750 limits assumed): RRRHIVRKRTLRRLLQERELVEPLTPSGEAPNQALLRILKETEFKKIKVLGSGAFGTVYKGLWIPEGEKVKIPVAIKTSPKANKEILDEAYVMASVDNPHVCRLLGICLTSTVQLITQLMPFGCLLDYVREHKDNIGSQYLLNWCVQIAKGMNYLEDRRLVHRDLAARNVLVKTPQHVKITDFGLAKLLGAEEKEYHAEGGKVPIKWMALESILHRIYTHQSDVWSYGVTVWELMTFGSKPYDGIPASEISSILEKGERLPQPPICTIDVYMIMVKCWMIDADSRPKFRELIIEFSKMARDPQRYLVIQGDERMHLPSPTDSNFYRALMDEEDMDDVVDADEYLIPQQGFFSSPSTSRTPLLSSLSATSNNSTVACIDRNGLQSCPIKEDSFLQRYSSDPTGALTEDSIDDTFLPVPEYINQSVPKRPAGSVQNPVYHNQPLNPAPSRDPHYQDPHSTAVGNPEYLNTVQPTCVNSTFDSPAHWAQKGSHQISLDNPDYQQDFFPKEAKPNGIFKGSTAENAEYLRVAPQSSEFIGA

IC50 (EGFR mutant L858R/T790M) [µM] | IC50 (EGFR mutant T790M) [µM] | IC50 (EGFR mutant L858R) [µM] | IC50 (EGFR mutant Del19/T790M) [µM] | IC50 (SYK) [µM] | IC50 [1] [µM] | SMILES
< 0.02 | < 0.02 | < 0.02 | < 0.02 | > 1 | < 0.02 | C=CC(=O)Nc1cc(Nc2nccc(-n3cc(CN4CCC4)c(-c4ccccc4)n3)n2)c(OC)cc1N1CCC1 [Compound 87, N-(2-(azetidin-1-yl)-5-(4-(4-(azetidin-1-ylmethyl)-3-phenyl-1H-pyrazol-1-yl)pyrimidin-2-ylamino)-4-methoxyphenyl)acrylamide]
< 0.02 | < 0.02 | < 0.02 | < 0.02 | 0.201 to 1 | < 0.02 | C=CC(=O)Nc1cc(Nc2nccc(-n3cc(CN(C)C)c(-c4cccs4)n3)n2)c(OC)cc1N1CCOCC1 [Compound 88, N-(5-(4-(4-((dimethylamino)methyl)-3-(thiophen-2-yl)-1H-pyrazol-1-yl)pyrimidin-2-ylamino)-4-methoxy-2-morpholinophenyl)acrylamide]
< 0.02 | < 0.02 | < 0.02 | < 0.02 | > 1 | < 0.02 | C=CC(=O)Nc1cc(Nc2nccc(-n3cc(CN(C)C)c(-c4ccccc4)n3)n2)c(OC)cc1N(C)CCOC [Compound 94]
< 0.02 | < 0.02 | < 0.02 | < 0.02 | > 1 | < 0.02 | C=CC(=O)Nc1cc(Nc2nccc(-n3cc(CN4CCC4)c(-c4ccccc4)n3)n2)c(OC)cc1N(C)CCOC [Compound 95, N-(5-(4-(4-(azetidin-1-ylmethyl)-3-phenyl-1H-pyrazol-1-yl)pyrimidin-2-ylamino)-4-methoxy-2-((2-methoxyethyl)(methyl)amino)phenyl)acrylamide]
< 0.02 | 0.02 to 0.2 | < 0.02 | < 0.02 | > 1 | < 0.02 | C=CC(=O)Nc1cc(Nc2nccc(-n3cc(CN(C)C)c(-c4ccccc4)n3)n2)c(OC)cc1N(C)C1COC1 [Compound 96, N-(5-(4-(4-((dimethylamino)methyl)-3-phenyl-1H-pyrazol-1-yl)pyrimidin-2-ylamino)-4-methoxy-2-(methyl(oxetan-3-yl)amino)phenyl)acrylamide]
< 0.02 | 0.02 to 0.2 | < 0.02 | < 0.02 | > 1 | 0.02 to 0.2 | C=CC(=O)Nc1cc(Nc2nccc(-n3cc(CN4CCC4)c(-c4ccccc4)n3)n2)c(OC)cc1N(C)C1COC1 [Compound 97, N-(5-(4-(4-(azetidin-1-ylmethyl)-3-phenyl-1H-pyrazol-1-yl)pyrimidin-2-ylamino)-4-methoxy-2-(methyl(oxetan-3-yl)amino)phenyl)acrylamide]
< 0.02 | < 0.02 | < 0.02 | < 0.02 | 0.02 to 0.2 | < 0.02 | C=CC(=O)Nc1cc(Nc2nccc(-n3cc(CN4CCC4)c(C4CC4)n3)n2)c(OC)cc1N(C)CCOC [Compound 107, N-(5-(4-(4-(azetidin-1-ylmethyl)-3-cyclopropyl-1H-pyrazol-1-yl)pyrimidin-2-ylamino)-4-methoxy-2-((2-methoxyethyl)(methyl)amino)phenyl)acrylamide]
< 0.02 | < 0.02 | < 0.02 | < 0.02 | 0.02 to 0.2 | < 0.02 | C=CC(=O)Nc1cc(Nc2nccc(-n3cc(CN(C)C)c(C4CC4)n3)n2)c(OC)cc1N(C)C1COC1 [Compound 108, N-(5-(4-(3-cyclopropyl-4-((dimethylamino)methyl)-1H-pyrazol-1-yl)pyrimidin-2-ylamino)-4-methoxy-2-(methyl(oxetan-3-yl)amino)phenyl)acrylamide]
< 0.02 | < 0.02 | < 0.02 | < 0.02 | > 1 | < 0.02 | C=CC(=O)Nc1cc(Nc2nccc(-n3cc(CN4CCC4)c(C4CC4)n3)n2)c(OC)cc1N(C)C1COC1 [Compound 109, N-(5-(4-(4-(azetidin-1-ylmethyl)-3-cyclopropyl-1H-pyrazol-1-yl)pyrimidin-2-ylamino)-4-methoxy-2-(methyl(oxetan-3-yl)amino)phenyl)acrylamide]
